Experimental data as given in patent US6376511B2, “8-aminoquinolines” (The University of Mississippi, priority 1999, dated 2002).
Like-named read-outs stand apart in the source and are kept apart here.

Columns and labels:
[1] = test system: Pneumocystis carinii; experiment: Anti-Pneumocystis carinii test (induced Pneumocystis carinii infection in immunosuppressed mice), oral; assay type: in vivo; details: for Number of animals with organism after treatment/Number of animals treated, Giesma Stain: mice (Table 8); for Giemsa Stain Score / Silver stain Score / Giemsa Stain I/T (animals with organism after treatment/animals treated) / Silver stain I/T (animals with organism after treatment/animals treated): mice; for Giemsa Stain Score / Silver stain Score: mean score on 0 to 5+ scale
[2] = mice; cited from earlier work
[3] = test system: Plasmodium berghei KBG-173; assay type: in vivo; details: for Parasitemia Day 6: percentage of red blood cells with parasites, control 31.8; for Mice surviving 60 days/Mice infected and treated: P. berghei in mice
Protocol: Blood Schizontocidal Test (Trophozoite-Induced Plasmodium berghei Infection in mice University of Miami, Test System: Thompson Test
Drugs were mixed in 0.5% hydroxycellulose 0.1% Tween 80 and administered orally b.i.d. on days 3, 4 and 5 postinfection. CD-1 male or female mice, 5 weeks of age, were infected with 5×10^4 parasitized erythrocytes of Plasmodium berghei KBG-173 mm strain. Blood films were taken on day +6 and weekly thereafter until day +60. Parasitemias were calculated and SD90 value (dose suppressing 90% of the parasites in treated groups compared with the infected non-treated controls) on day +6 postinfection. Mortality data was tabulated for 60 days at which time all mice surviving that were blood film negative were considered cured.
[…] The activity of these compounds were compared with the untreated control and “racemate” which is a mixture of equal amount of each enantiomer X and Y. In untreated controls, death occurs within 8-9 days. Compounds which are effective against Plasmodium berghei infection increase the mean survival time of the infected animals when compared with the untreated controls. Mice that survive after thirty days and are free of parasites in blood are considered cured.
Efficacy of the drug is determined by the number of cures at the end of a 30 day period and the increase in mean survival time over the control (ΔMST). The effect of the test drugs also could be determined by the reduction of the parasitemia (percentage of the red blood cells detected with the parasites) over the untreated control on day 6, one day after the treatment is completed. Both these methods yield virtually identical results. If the dose of test compounds are inadequate, after initial clearance, residual parasites will multiply and relapses will occur within thirty days. The blood schizontocidal activities (suppressive antimalarial) of X, Y, and racemate against P. berghei in mice are shown in Table 11.

[4] = test system: Plasmodium berghei KBG-173; experiment: Prophylactic test, Plasmodium berghei infection in mice, oral; assay type: in vivo; details: single dose of 2 mg/kg
Excerpt: CD-I male or female mice, 5 weeks of age, were infected with 5×10^4 parasitized erythrocytes ot Plasmodium berghei KBG-173 mm strain. Blood films were taken on day +6 and weekly thereafter until day+30. […]

[5] = test system: trypanosome isolate EATRO Lab 110; experiment: Antitrypanosomal activity, trypanosome isolates grown as blood forms in HMI-18; assay type: cell-based, Trypanosoma; details: EATRO Lab 110, after 48 h, 20% horse serum, read-out: IC50
Protocol: (§1) Compounds were tested vs. trypanosome isolates grown as blood forms in HMI-18 (Hirumi H., Hirumi, K. 1989. Continuous Cuitivation of Trypanosoma brucei bloodstream forms in a medium containing a low concentration of serum portein without feeder cell layers. J. Parasitol. 75:985-989) containing 20% horse serum.

[6] = test system: trypanosome isolate KETRI 243As103; experiment: as above; assay type: cell-based, Trypanosoma; details: KETRI 243As103, after 48 h, 20% horse serum; succinate
Protocol: as §1

[7] = test system: trypanosome isolate KETRI 243; experiment: as above; assay type: cell-based, Trypanosoma; details: KETRI 243, after 48 h, 20% horse serum; succinate; read-out: IC50
Protocol: as §1

[8] = test system: trypanosome isolate KETRI 269; experiment: as above; assay type: cell-based, Trypanosoma; details: KETRI 269, after 48 h, 20% horse serum, read-out: IC50
Protocol: as §1

[9] = rhesus monkey; cited from earlier work
[10] = test system: L. donovani Chagasi PP75; experiment: In vitro anti-Leishmania activity, Giemsa counts; assay type: cell-based; details: 1350 ng/mL; control 6.35
[11] = test system: P. cynomolgi; details: rhesus monkey, cited from earlier work
[12] = 0.25 mg/kg/day, 0.75 mg/kg total, succinate
[13] = 1 mg/kg/day, 3 mg/kg total, succinate
[14] = 4 mg/kg/day, 12 mg/kg total, succinate
[15] = oral 0.25 mg/kg/day (x21), succinate, 0.25 mg/kg/day
[16] = oral dose 1 mg/kg/day (total dose 3 mg/kg)
[17] = oral dose 4 mg/kg/day (total dose 12 mg/kg)
[18] = oral dose 16 mg/kg/day (total dose 48 mg/kg)
[19] = oral dose 64 mg/kg/day (total dose 192 mg/kg)

## COc1cc(NC(C)CCCN)c2ncccc2c1 (single isomer, unassigned; (+)) [(+) Primaquine, reference compound]
[1]; oral 2 mg/kg/day (x21)
  Number of animals with organism after treatment/Number of animals treated, Giesma Stain: 10/10
[1]; oral 5 mg/kg/day (x21), listed as (+) Enantiomer, 5 mg/kg/day
  Number of animals with organism after treatment/Number of animals treated, Giesma Stain: 7/10
[1]; oral 10 mg/kg/day (x21), listed as (+) Enantiomer, 10 mg/kg/day
  Number of animals with organism after treatment/Number of animals treated, Giesma Stain: 1/10
[2]
  toxicity relative to the l-form: approximately 4 times

## COc1cc(NC(C)CCCN)c2nccc(C)c2c1Oc1ccc(Cl)c(Cl)c1 (single isomer, unassigned; (+)) [X, (+) 8-[(4-amino-1-methylbutyl)amino]-5-(3,4-dichlorophenoxy)-6-methoxy-4-methylquinoline succinate]
[3]; [12]
  Parasitemia Day 6: 28.2
  Mice Alive Day 26: 0/5
  ΔMST (increase in mean survival time over the control): 0 days
[3]; 1 mg/kg/day, 3 mg/kg total
  ΔMST (increase in mean survival time over the control): 6 days
[3]; [13]
  Parasitemia Day 6: 27.4
  Mice Alive Day 26: 0/5
[3]; 4 mg/kg/day, 12 mg/kg total
  ΔMST (increase in mean survival time over the control): 11 days
[3]; [14]
  Parasitemia Day 6: 1.1
  Mice Alive Day 26: 0/5
[4]; day of treatment 2 (Table 5), listed as X Enantiomer, succinate, 2 mg/kg
  Mice surviving day 60/Mice infected and treated: 0/5
[4]; day of treatment -2 (Table 5), listed as X Enantiomer, succinate, 2 mg/kg
  Mice surviving day 60/Mice infected and treated: 0/5
[4]; day of treatment -3 (Table 5)
  Mice surviving day 60/Mice infected and treated: 0/5
[4]; day of treatment -4 (Table 5)
  Mice surviving day 60/Mice infected and treated: 0/5
[4]; day of treatment -5 (Table 5)
  Mice surviving day 60/Mice infected and treated: 0/5
[1]; [15]
  Giemsa Stain Score: 0.55 ± 0.16
  Silver stain Score: 1.15 ± 0.16
  Giemsa Stain I/T (animals with organism after treatment/animals treated): 6/10
  Silver stain I/T (animals with organism after treatment/animals treated): 10/10
[1]; oral 0.5 mg/kg/day (x21)
  Giemsa Stain I/T (animals with organism after treatment/animals treated): 2/10
  Silver stain I/T (animals with organism after treatment/animals treated): 2/10
  Giemsa Stain Score: 0.20 ± 0.10
  Silver stain Score: 0.1 ± 0.1
[1]; oral 1 mg/kg/day (x21)
  Giemsa Stain I/T (animals with organism after treatment/animals treated): 0/10
  Silver stain I/T (animals with organism after treatment/animals treated): 0/10
  Giemsa Stain Score: 0.0
  Silver stain Score: 0.0
[1]; oral 5 mg/kg/day (x21)
  Giemsa Stain I/T (animals with organism after treatment/animals treated): 0/10
  Silver stain I/T (animals with organism after treatment/animals treated): 0/10
  Giemsa Stain Score: 0.0
  Silver stain Score: 0.0
[5]; Trypanosoma, 48 h
  IC50: 8.3 µM
[6]
  IC50: 36 µM
[7]
  IC50: 34 µM
[8]; Trypanosoma, 48 h
  IC50: 37 µM

## COc1cc(NC(C)CCCN)c2ncccc2c1 (single isomer, unassigned; (-)) [(−) Primaquine, reference compound]
[1]; oral 5 mg/kg/day (x21), listed as (−) Enantiomer, 5 mg/kg/day
  Number of animals with organism after treatment/Number of animals treated, Giesma Stain: 10/10
[1]; oral 10 mg/kg/day (x21), listed as (−) Enantiomer, 10 mg/kg/day
  Number of animals with organism after treatment/Number of animals treated, Giesma Stain: 10/10
[9]
  toxicity relative to d-primaquine: 3 to 5 times
  toxicity relative to racemic primaquine: at least twice as toxic

## COc1cc(NC(C)CCCN)c2nccc(C)c2c1Oc1ccc(Cl)c(Cl)c1 (single isomer, unassigned; (-)) [Y, (−)-8-[(4-amino-1-methylbutyl)amino]-5-(3,4-dichlorophenoxy)-6-methoxy-4-methylquinoline succinate]
[3]; [12]
  Parasitemia Day 6: 0.2
  Mice Alive Day 26: 0/0
  ΔMST (increase in mean survival time over the control): 11.6 days
[3]; [13]
  Parasitemia Day 6: 0.0
  Mice Alive Day 26: 4/5
  ΔMST (increase in mean survival time over the control): 13.6 days
[3]; [14]
  Parasitemia Day 6: 0.0
  Mice Alive Day 26: 5/5
[4]; day of treatment 2 (Table 5), listed as Y Enantiomer, succinate, 2 mg/kg
  Mice surviving day 60/Mice infected and treated: 5/5
[4]; day of treatment -2 (Table 5), listed as Y Enantiomer, succinate, 2 mg/kg
  Mice surviving day 60/Mice infected and treated: 1/5
[4]; day of treatment -3 (Table 5)
  Mice surviving day 60/Mice infected and treated: 0/5
[4]; day of treatment -4 (Table 5)
  Mice surviving day 60/Mice infected and treated: 0/5
[4]; day of treatment -5 (Table 5)
  Mice surviving day 60/Mice infected and treated: 0/5
[1]; (−) versus (+) enantiomer of DN3-27-1
  activity in the mouse model of PCP, enantiomer comparison: significantly greater activity than the (+) enantiomer
[1]; [15]
  Giemsa Stain Score: 0.0
  Silver stain Score: 0.0
  Giemsa Stain I/T (animals with organism after treatment/animals treated): 0/10
  Silver stain I/T (animals with organism after treatment/animals treated): 0/10
[1]; oral 1 mg/kg/day (x21)
  Giemsa Stain I/T (animals with organism after treatment/animals treated): 0/10
  Silver stain I/T (animals with organism after treatment/animals treated): 0/10
  Giemsa Stain Score: 0.0
  Silver stain Score: 0.0
[1]; oral 5 mg/kg/day (x21)
  Giemsa Stain I/T (animals with organism after treatment/animals treated): 0/10
  Silver stain I/T (animals with organism after treatment/animals treated): 0/10
  Giemsa Stain Score: 0.0
  Silver stain Score: 0.0
[5]; succinate
  IC50: 13.5 µM
[6]
  IC50: 17.5 µM
[7]
  IC50: 11 µM
[8]; succinate
  IC50: 27 µM

## O=C1C(O)=C([C@H]2CC[C@H](c3ccc(Cl)cc3)CC2)C(=O)c2ccccc21 [Atovaquone, reference compound]
[10]
  Giemsa Counts: 5.05 ± 0.21

## CCCCCOc1c(OC)cc(NC(C)CCCN)c2nccc(C)c12 (stereo not drawn) [Compound 4]
[3]; [16]
  Mice surviving 60 days/Mice infected and treated: 7/7
[3]; [17]
  Mice surviving 60 days/Mice infected and treated: 7/7
[3]; [18]
  Mice surviving 60 days/Mice infected and treated: 4/7
[3]; [19]
  Mice surviving 60 days/Mice infected and treated: 0/7

## COc1cc(NC(C)CCCN)c2ncccc2c1 (stereo not drawn) [Primaquine, reference compound]
[3]; [16]
  Mice surviving 60 days/Mice infected and treated: 0/7
[3]; [17]
  Mice surviving 60 days/Mice infected and treated: 0/7
[3]; [18]
  Mice surviving 60 days/Mice infected and treated: 1/7
[3]; [19]
  Mice surviving 60 days/Mice infected and treated: 3/7
[1]; oral 5 mg/kg/day (x21), 5 mg/kg/day
  Number of animals with organism after treatment/Number of animals treated, Giesma Stain: 10/10
[1]; oral 10 mg/kg/day (x21), 10 mg/kg/day
  Number of animals with organism after treatment/Number of animals treated, Giesma Stain: 5/10
[11]; 0.316 mg/kg/day x7, orally
  Monkeys infected and treated/cured: 0/2
[11]; 1.0 mg/kg/day x7, orally
  Monkeys infected and treated/cured: 1/2

## COc1cc(NC(C)CCCN)c2nccc(C)c2c1Oc1cccc(C(F)(F)F)c1 (stereo not drawn) [WR-225,448, reference compound]
[3]; [16]
  Mice surviving 60 days/Mice infected and treated: 7/7
[3]; [17]
  Mice surviving 60 days/Mice infected and treated: 7/7
[3]; [18]
  Mice surviving 60 days/Mice infected and treated: 7/7
[3]; [19]
  Mice surviving 60 days/Mice infected and treated: 4/7

## COc1cc(C)c2c(Oc3cccc(C(F)(F)F)c3)c(OC)cc(NC(C)CCCN)c2n1 (stereo not drawn) [WR-238,605, reference compound]
[3]; [16]
  Mice surviving 60 days/Mice infected and treated: 0/7
[3]; [17]
  Mice surviving 60 days/Mice infected and treated: 1/7
[3]; [18]
  Mice surviving 60 days/Mice infected and treated: 7/7
[3]; [19]
  Mice surviving 60 days/Mice infected and treated: 1/7
